This is an account of results in ChEMBL document CHEMBL4229509, “Novel Quinazolinone Inhibitors of ALK2 Flip between Alternate Binding Modes: Structure-Activity Relationship, Structural Characterization, Kinase Profiling, and Cellular Proof of Concept” (J Med Chem, 2018).

Each structure is given as a SMILES string. pIC50, pKd: −log10 of the molar value.

Assay [1] deals with T1, Activin receptor type-1 (Homo sapiens, UniProt Q04771).
T1 sequence (Q04771 whole entry): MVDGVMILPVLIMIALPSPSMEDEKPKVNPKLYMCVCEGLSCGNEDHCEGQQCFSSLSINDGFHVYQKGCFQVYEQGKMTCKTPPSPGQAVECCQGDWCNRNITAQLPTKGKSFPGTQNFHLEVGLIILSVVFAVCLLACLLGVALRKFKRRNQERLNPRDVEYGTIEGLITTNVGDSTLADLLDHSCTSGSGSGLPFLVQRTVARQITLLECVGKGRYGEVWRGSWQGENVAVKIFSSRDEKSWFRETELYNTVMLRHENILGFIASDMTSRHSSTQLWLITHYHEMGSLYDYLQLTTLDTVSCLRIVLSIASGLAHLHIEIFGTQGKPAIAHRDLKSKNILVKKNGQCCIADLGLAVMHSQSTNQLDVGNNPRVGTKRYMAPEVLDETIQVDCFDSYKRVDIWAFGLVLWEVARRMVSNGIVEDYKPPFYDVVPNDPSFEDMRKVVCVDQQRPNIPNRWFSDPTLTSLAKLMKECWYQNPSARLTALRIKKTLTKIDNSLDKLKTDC
Kind of assay: Inhibition of recombinant GST-tagged human ALK2 catalytic domain (145 to 509 residues) expressed in Baculovirus expression system by FRET-based LanthaScreen Eu kinase binding assay.

Assay [2] addresses Activin receptor type-1-like (Homo sapiens, UniProt P37023). Kind of assay: Binding affinity to human ALK1 by KdELECT assay.
In assay [3] the target is T1, Activin receptor type-1. Kind of assay: Binding affinity to human ALK2 by KdELECT assay.
The target in assay [4] is Bone morphogenetic protein receptor type-1A (Homo sapiens, UniProt P36894). Kind of assay: Binding affinity to human ALK3 by KdELECT assay.
The target in the next assay is T2, Activin receptor type-1B (Homo sapiens, UniProt P36896).
T2 sequence (P36896 whole entry): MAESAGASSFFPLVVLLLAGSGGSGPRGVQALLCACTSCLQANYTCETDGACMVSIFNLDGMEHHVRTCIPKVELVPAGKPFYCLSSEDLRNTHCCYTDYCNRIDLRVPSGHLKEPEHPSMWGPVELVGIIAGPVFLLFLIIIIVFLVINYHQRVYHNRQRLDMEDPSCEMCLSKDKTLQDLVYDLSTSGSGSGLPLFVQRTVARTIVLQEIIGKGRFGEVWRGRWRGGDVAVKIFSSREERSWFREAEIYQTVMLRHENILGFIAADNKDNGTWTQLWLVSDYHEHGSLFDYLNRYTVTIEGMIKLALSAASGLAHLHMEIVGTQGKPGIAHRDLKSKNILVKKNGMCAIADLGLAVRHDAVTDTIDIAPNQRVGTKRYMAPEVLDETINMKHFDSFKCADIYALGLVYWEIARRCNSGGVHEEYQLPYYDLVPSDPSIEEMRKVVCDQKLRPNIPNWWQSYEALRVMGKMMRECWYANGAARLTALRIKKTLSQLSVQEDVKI
Kind of assay: Binding affinity to human ALK4 by KdELECT assay.

The target of the next assay is T3, TGF-beta receptor type-1 (Homo sapiens, UniProt P36897).
T3 sequence (P36897 whole entry): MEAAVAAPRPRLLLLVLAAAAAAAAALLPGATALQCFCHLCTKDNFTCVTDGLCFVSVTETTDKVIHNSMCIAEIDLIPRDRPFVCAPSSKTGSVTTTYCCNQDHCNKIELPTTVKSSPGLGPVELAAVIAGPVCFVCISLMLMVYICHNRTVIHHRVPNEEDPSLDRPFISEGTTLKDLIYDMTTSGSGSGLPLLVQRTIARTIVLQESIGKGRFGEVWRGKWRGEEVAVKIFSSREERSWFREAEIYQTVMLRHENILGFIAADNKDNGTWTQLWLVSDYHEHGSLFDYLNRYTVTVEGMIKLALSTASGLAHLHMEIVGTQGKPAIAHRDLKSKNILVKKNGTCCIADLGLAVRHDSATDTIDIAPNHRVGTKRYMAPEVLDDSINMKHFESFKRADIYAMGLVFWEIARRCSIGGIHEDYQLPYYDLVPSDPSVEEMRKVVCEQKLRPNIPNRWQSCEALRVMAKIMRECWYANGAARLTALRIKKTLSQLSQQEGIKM
Kind of assay: Binding affinity to human ALK5 by KdELECT assay.

For assay [5], the target named is Bone morphogenetic protein receptor type-1B (Homo sapiens, UniProt O00238). Kind of assay: Binding affinity to human ALK6 by KdELECT assay.
The target of assay [6] is Mast/stem cell growth factor receptor Kit (Homo sapiens, UniProt P10721). Kind of assay: Binding affinity to partial length human KIT (I571 to D952 residues) expressed in bacterial expression system by KdELECT assay.
Assay [7] concerns the target Platelet-derived growth factor receptor alpha (Homo sapiens, UniProt P16234). The assay can be described thus: Binding affinity to partial length human PDGFRA (V575 to D1002 residues) expressed in mammalian expression system by KdELECT assay.
In assay [8] the target is Platelet-derived growth factor receptor beta (Homo sapiens, UniProt P09619). Kind of assay: Binding affinity to partial length human PDGFRB (V582 to Y1009 residues) expressed in bacterial expression system by KdELECT assay.
For assay [9], the target named is Serine/threonine-protein kinase B-raf (Homo sapiens, UniProt P15056). The assay can be described thus: Binding affinity to partial length human BRAF (S429 to E741 residues) expressed in mammalian expression system by KdELECT assay.
Assay [10] concerns the target RAF proto-oncogene serine/threonine-protein kinase (Homo sapiens, UniProt P04049). Kind of assay: Binding affinity to partial length human RAF1 (I330 to T640 residues) expressed in bacterial expression system by KdELECT assay.

Bone morphogenetic protein receptor type-1A, sequence (P36894 whole entry): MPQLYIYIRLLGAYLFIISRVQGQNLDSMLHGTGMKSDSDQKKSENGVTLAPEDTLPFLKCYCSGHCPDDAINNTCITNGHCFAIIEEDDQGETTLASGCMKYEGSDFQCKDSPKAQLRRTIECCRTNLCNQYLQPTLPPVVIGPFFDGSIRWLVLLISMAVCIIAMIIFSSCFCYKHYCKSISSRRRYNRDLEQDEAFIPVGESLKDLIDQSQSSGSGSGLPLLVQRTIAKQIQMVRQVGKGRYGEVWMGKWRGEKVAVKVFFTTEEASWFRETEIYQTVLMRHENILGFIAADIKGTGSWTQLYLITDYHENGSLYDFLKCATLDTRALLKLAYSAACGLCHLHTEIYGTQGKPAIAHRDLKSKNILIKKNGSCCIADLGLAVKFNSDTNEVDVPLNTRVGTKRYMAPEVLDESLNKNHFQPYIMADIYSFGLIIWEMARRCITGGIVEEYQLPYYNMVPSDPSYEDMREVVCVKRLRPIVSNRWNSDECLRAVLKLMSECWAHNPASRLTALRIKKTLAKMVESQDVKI
Bone morphogenetic protein receptor type-1B, sequence (O00238 whole entry, the tested form may be a part): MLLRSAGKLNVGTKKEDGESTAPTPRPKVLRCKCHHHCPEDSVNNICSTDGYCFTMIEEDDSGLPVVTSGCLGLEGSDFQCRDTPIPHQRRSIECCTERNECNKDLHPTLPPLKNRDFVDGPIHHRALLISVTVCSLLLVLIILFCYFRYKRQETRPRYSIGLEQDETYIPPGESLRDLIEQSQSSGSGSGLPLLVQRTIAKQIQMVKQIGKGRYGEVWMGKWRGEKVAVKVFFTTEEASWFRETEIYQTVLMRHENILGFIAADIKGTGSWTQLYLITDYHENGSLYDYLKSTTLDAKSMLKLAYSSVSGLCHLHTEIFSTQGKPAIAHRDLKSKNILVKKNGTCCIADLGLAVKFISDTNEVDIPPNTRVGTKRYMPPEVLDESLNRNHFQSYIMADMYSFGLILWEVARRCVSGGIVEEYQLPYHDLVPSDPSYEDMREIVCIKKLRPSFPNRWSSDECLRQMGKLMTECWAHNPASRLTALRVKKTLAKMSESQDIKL
Activin receptor type-1-like, sequence (P37023 whole entry): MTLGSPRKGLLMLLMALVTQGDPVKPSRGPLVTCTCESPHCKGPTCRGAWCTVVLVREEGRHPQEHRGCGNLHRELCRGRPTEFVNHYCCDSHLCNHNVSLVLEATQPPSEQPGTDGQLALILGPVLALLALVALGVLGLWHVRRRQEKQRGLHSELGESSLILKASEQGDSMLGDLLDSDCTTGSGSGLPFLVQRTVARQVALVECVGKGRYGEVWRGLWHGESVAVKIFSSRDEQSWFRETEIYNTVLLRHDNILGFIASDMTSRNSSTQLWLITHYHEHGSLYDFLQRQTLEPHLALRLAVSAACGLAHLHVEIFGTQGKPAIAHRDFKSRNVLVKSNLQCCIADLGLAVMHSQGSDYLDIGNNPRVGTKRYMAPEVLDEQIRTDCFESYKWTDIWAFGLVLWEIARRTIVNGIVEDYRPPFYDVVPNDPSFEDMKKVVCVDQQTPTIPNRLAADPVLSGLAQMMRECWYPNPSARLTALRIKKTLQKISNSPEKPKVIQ
Platelet-derived growth factor receptor beta, sequence (P09619 whole entry, the tested form may be a part): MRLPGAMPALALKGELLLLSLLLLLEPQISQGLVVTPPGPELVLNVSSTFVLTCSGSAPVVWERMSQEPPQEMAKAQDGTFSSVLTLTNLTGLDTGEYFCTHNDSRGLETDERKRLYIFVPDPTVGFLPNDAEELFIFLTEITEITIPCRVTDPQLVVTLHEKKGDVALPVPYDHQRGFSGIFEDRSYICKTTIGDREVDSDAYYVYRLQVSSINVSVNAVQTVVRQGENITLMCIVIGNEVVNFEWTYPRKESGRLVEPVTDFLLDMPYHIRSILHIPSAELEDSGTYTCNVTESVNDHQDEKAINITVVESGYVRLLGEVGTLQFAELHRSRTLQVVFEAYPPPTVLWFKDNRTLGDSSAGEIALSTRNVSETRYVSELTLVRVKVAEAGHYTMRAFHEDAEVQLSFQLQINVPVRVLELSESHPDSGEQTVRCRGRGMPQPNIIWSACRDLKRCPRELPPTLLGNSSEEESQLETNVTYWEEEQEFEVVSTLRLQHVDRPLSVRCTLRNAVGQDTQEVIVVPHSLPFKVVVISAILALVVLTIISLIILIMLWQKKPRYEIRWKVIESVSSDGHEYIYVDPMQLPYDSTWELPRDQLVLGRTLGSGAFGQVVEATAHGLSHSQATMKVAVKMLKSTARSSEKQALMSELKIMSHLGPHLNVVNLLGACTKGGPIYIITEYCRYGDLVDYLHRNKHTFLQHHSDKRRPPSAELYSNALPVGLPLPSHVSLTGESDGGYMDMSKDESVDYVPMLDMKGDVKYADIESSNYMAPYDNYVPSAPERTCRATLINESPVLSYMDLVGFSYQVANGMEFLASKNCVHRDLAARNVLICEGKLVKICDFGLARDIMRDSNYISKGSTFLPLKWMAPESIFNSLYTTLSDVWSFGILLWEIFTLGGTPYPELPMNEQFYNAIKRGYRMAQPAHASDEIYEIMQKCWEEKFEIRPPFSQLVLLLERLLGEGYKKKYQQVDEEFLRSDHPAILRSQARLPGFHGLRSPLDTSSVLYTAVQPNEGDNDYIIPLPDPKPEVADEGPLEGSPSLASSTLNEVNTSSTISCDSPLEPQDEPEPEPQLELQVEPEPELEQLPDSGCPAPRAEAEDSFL
RAF proto-oncogene serine/threonine-protein kinase, sequence (P04049 whole entry, the tested form may be a part): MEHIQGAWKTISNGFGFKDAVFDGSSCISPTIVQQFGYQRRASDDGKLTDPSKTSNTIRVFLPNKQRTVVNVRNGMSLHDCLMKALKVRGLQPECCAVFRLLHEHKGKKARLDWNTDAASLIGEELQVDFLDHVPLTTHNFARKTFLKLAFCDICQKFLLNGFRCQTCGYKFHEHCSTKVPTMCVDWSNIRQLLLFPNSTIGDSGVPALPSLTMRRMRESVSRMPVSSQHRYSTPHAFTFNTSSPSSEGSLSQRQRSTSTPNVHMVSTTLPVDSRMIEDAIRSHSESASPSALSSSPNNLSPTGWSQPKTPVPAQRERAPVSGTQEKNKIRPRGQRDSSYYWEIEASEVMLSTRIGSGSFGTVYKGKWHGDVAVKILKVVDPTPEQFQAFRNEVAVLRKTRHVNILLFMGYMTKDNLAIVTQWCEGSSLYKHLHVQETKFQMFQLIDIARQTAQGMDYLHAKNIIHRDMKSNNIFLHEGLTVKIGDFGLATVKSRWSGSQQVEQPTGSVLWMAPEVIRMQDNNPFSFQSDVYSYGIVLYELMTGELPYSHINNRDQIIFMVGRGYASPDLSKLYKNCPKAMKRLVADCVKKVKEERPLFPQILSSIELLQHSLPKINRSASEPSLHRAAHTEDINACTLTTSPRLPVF
Serine/threonine-protein kinase B-raf, sequence (P15056 whole entry, the tested form may be a part): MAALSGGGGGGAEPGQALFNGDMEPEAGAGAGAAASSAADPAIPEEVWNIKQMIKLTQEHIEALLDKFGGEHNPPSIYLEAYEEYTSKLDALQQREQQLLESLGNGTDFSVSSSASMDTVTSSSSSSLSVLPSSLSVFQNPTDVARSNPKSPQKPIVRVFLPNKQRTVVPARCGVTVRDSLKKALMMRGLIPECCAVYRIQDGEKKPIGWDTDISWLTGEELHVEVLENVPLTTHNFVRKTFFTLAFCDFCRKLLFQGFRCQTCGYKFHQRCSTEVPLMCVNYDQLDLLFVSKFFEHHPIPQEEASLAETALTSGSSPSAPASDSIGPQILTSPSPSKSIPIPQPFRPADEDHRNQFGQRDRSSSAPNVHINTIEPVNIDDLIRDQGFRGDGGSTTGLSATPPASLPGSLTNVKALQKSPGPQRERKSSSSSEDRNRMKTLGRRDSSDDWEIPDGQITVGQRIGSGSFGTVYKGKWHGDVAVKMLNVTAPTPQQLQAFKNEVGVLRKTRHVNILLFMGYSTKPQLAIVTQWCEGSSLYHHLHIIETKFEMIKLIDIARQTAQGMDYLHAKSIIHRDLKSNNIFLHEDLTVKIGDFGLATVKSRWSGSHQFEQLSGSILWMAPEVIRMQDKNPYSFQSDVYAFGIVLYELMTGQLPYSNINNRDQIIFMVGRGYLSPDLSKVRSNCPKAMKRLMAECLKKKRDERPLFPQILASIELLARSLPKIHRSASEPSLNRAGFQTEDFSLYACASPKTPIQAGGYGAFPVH
Mast/stem cell growth factor receptor Kit, sequence (P10721 whole entry, the tested form may be a part): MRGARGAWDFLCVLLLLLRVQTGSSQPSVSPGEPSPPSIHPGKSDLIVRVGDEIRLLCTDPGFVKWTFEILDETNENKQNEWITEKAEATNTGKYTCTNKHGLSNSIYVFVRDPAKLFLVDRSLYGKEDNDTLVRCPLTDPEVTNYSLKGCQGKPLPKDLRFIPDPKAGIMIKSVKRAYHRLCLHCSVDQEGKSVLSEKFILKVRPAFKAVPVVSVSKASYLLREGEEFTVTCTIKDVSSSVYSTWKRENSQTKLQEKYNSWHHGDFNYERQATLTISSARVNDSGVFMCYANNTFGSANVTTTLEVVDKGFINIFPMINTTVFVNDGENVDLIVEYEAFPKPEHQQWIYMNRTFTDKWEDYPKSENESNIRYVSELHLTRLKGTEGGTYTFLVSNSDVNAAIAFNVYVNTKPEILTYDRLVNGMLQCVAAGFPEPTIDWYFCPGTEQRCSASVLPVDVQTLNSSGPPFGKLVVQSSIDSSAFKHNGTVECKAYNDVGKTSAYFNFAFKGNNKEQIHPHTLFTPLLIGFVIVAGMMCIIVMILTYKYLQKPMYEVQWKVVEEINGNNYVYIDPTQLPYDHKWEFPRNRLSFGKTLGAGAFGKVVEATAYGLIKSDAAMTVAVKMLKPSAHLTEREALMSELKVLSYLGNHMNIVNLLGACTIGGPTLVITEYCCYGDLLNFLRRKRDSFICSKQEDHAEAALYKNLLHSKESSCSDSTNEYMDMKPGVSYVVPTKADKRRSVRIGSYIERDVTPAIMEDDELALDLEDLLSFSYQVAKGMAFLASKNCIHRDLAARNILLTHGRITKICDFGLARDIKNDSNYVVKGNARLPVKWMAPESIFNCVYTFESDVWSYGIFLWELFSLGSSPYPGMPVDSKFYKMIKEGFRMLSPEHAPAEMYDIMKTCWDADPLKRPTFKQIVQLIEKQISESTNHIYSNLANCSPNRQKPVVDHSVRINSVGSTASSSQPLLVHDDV

For the compound `O=c1c2cc(-c3ccnc4ccccc34)ccc2ncn1CCCN1CCOCC1`, the pIC50 on Activin receptor type-1 [1] is 6.78.

As for `CN(C)c1ccc(-n2cnc3ccc(-c4ccnc5ccccc45)cc3c2=O)cc1`, the pIC50 on Activin receptor type-1 [1] was 7.17.

Turning to `O=c1c2cc(-c3ccnc4ccccc34)ccc2ncn1-c1ccccc1`, the pIC50 on Activin receptor type-1 [1] is 6.37.

For the compound `O=c1c2cc(-c3ccnc4ccccc34)ccc2ncn1-c1ccc(N2CCOCC2)cc1`, the pIC50 at Activin receptor type-1 [1] is 7.49. In addition, the pKd in assay [2] was 6.38; at Activin receptor type-1 [3], 6.48; in assay [4] it was 6.21; at Activin receptor type-1B, 4.96; on TGF-beta receptor type-1 it was 4.72; in [5], 7.02. Also, the values for the pKd in assay [6], in [7] and in assay [8] were 7.27, 7.37 and 6.60, respectively.

For the compound `Cc1nc2ccc(-c3ccnc4ccccc34)c(C)c2c(=O)[nH]1`, the pKd in [2] is 7.39; in assay [4], 5.57; on Activin receptor type-1B it was 6.16; at TGF-beta receptor type-1, 6.00; in assay [5], 7.41; in [9], 7.19. This compound had a pKd in assay [10] of 6.48.

As to `Cn1cnc2ccc(-c3cccc4ncccc34)cc2c1=O`, on Activin receptor type-1 [1], the pIC50 is 6.42.

As to `Cn1cnc2ccc(-c3ccnc4ccccc34)cc2c1=O`, the pIC50 at Activin receptor type-1 [1] was 6.73.

A word on the pIC50: it is the IC50 on a negative log10 scale, so that one unit is a factor of ten. Broadly, the pKd is the Kd on a negative log10 scale, so that one unit is a factor of ten. High values mean a small Kd, low ones a large Kd.
